pIC50: −log10 of the molar value.
Target: Tumor necrosis factor (Homo sapiens, UniProt P01375)
Test: TNF induced HEK-Blue assay
Protocol: Test compounds serially diluted in DMSO were plated in an assay plate (Labcyte, Cat. #LP-0200) at final concentrations ranging from 0.004 μM to 25μM. TNFα (final concentration 0.5 ng/ml) or CD4OL (final concentration 30 ng/ml) in assay buffer [DMEM, 4.5 g/l glucose (Gibco, Cat. 21063-029), 10% FBS (Sigma, F4135), 1% Penicillin-Streptomycin (Gibco, Cat. 15140-122), 1% Anti-Anti (Gibco, Cat. 15240-112) and 2 mM L-glutamine (Gibco, Cat. 25030-081)] was then added to the assay plate. After a 30 minute pre-incubation at 37° C. and 5% CO2, HEK-Blue-CD40L cells (InvivoGen, Cat. Code hkb-cd40) containing a NF-κB-driven secreted alkaline phosphatase reporter gene were seeded into the assay plate at a density of 20,000 cells per well. This plate was then incubated for 18 h at 37° C. and 5% CO2. Secreted alkaline phosphatase expression was measured using QUANTI-Blue (InvivoGen, Cat. Code rep-qb1) according to manufacturer's specifications and the assay plate was read on a PerkinElmer Envision at 620 nm.

Tumor necrosis factor, sequence (P01375 whole entry): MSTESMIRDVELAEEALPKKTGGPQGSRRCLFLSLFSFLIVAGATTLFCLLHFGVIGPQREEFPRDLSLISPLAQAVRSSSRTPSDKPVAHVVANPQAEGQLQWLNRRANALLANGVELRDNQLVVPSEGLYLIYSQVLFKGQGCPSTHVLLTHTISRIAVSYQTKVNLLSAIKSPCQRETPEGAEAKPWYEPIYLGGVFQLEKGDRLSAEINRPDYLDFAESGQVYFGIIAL

With CC(C)(O)c1ccc(-c2ccc3nc4c(n3n2)[C@@H](c2ccccc2OC(F)F)NC[C@H]4O)cc1 [US10308652, Example 6] the pIC50 was > 6.00.

From BindingDB's records for patent US10308652 (Bristol-Myers Squibb, 2019)
